≈ marks a conversion by molar mass, not a printed value. Read-outs that look alike come from different tables or passages of the source.
Experiments:
[1] = Solubility in water; conditions: for solubility: solubility in water
[2] = J. Pharm. Sci., 82, 227(1993); cited from earlier work
[3] = Analgetic activity: acetic acid writhing inhibition; assay type: in vivo; conditions: mice; for No. of Writhings: 100 mg/kg transdermally 60 minutes before acetic acid solution intraperitoneally, control group 35.0; for rate of writhings inhibition %: 100 mg/kg transdermally 60 minutes before acetic acid solution, based on the control group
Description: The group A is the control group. Table 1. The rate of writhings inhibition by prodrugs of arylanthranilic acids

[4] = Antipyretic activity after sterilized E. coli suspension as a pyrogen; assay type: in vivo; conditions: rats, 100 mg/kg transdermally 2 hours after E. coli pyrogen
Method: Antipyretic activity: Rats received a sterilized E. coli suspension as a pyrogen. […] The body temperature of rats was taken at 90 min. intervals before and after the administration of the test compounds. Table 2. Antipyretic Activity of prodrugs of arylanthranilic acids.

[5] = Analgetic activity: prolongation time of the pain threshold of a mouse tail (D'Amour-Smith Method); assay type: in vivo, mice; conditions: 50mg/kg transdermally, mouse tails exposed to heat; Figure 3
Method: Analgetic activity: The prolongation time of the pain threshold of a mouse tail was determined in accordance with the D'Amour-Smith Method (J. Pharmacol. Exp. Ther., 72, 74(1941)). After 50mg/kg of these prodrugs were administered transdermally, the tails of mice were exposed to heat and the prolongation time of pain threshold was determined.
Group A is the control group. • Figure 4. The rate of swelling (%) after a carrageenin injection. […] Group A is the control group. • Figure 5.

[6] = In vitro penetration through human skin in modified Franz cells; assay type: in vitro ADME; conditions: for Apparent flux values: human skin 360-400 µm, donor 30% solution (prodrugs) or 30% suspension (parent drugs) in 2mL of pH 7.4 phosphate buffer (0.2M); for diffuses through human skin times faster than the parent drug: prodrug versus mefenamic acid, meclofenamic acid, flufenamic acid, niflumic acid, or flunixin
[7] = Acute toxicity, LD50 orally; conditions: mouse, in vivo, po; orally in mice; prodrugs
Description: The acute toxicity of the prodrugs was investigated.

[8] = In vivo penetration through the skin of intact hairless mice, plasma levels by HPLC; conditions: for peak plasma levels / time to peak levels after application of the donor systems: 20% solution in 1 mL of isopropanol on 10 cm^2 of the backs of hairless mice; for peak plasma levels: plasma levels of parent drug; for time to peak levels after application of the donor systems: transdermal; for difference in peak plasma levels, prodrugs versus parent drugs: topical application, hairless mice
Description: (§1) The in vivo rates of penetration of diethylaminoethyl 2-[(2,3-dimethylphenyl)amino]benzoate.AcOH, diethylaminoethyl 2-[(2,6-dichloro-3-methylphenyl)amino]benzoate.AcOH, diethylaminoethyl 2-[[(3-(trifluoromethyl)phenyl)amino]benzoate.AcOH, diethylaminoethyl 2-[[3-(trifluoromethyl)phenyl]amino]-3-pyridinecarboxylate.AcOH, and diethylaminoethyl 2-[[2-methyl-3-(trifluoromethyl)phenyl]amino]-3-pyridinecarboxylate.AcOH, mefenamic acid, meclofenamic acid, flufenamic acid, niflumic acid, and flunixin through the skin of intact hairless mice were compared. The donor consisted of a 20% solution of these compounds in 1 mL of isopropanol applied to a 10 cm^2 on the backs of the hairless mice. Plasma levels of mefenamic acid, meclofenamic acid, flufenamic acid, niflumic acid, and flunixin were determined by a specific high-performance liquid chromatography method.

[9] = Gastroduodenal bleeding (fecal blood) after oral administration for 21 days; conditions: rats, orally 50 mg/kg per day for 21 days
[10] = rat, in vivo, po, 50 mg/kg/day, 21 days
[11] = cited from earlier work
[12] = hairless, mouse, in vivo
Description: as §1

[13] = taken orally; cited from earlier work
[14] = physchem; conditions: water
[15] = parent drugs, given for comparison

Row | Structure (SMILES) | solubility [1] [mg/mL] | No. of Writhings [3] | rate of writhings inhibition % [3] [%] | body temperature t=0 min. [4] | body temperature t=90 min. [4] | body temperature t=180 min. [4] | body temperature t=270 min. [4] | analgesic activity, prolongation time of pain threshold (in words) [5] | Apparent flux values [6] [mg/cm^2/h] | diffuses through human skin times faster than the parent drug [6] [times] | LD50 [7] [mg/kg] | peak plasma levels [8] [mg/mL] | time to peak levels after application of the donor systems [8] [min] | difference in peak plasma levels, prodrugs versus parent drugs [8] | average fecal blood [9] | average fecal blood [10] | peak plasma levels [12] [mg/mL] | time to reach peak plasma level [13] [h] | solubility [14] [mg/mL] | also measured
1 | CC(=O)O.CCN(CC)CCNC(=O)c1ccccc1Nc1cccc(C)c1C [N-diethylaminoethyl 2-[(2,3-dimethylphenyl)amino] benzoamide.AcOH] | – | – | – | – | – | – | – | – | – | – | – | – | – | – | – | – | – | – | – | solubility in water [1]: 400 mg/mL
2 | CCN(CC)CCNC(=O)c1ccccc1Nc1c(Cl)ccc(C)c1Cl [N-diethylaminoethyl 2-[(2,6-dichloro-3-methylphenyl)amino] benzoamide.AcOH] | 400 (≈ 1010 mM) | – | – | – | – | – | – | – | – | – | – | – | – | – | – | – | – | – | – | –
3 | CN(C)CCCC(=O)O[C@H]1CC[C@H]2[C@@H]3CCC4=CC(=O)CC[C@]4(C)[C@H]3CC[C@]12C.Cl [TSBH, testosteronyl-4-dimethylaminobutyrate.HCl] | – | – | – | – | – | – | – | – | – | – | – | – | – | – | – | – | – | – | – | diffuses through human skin times faster than the drug (TS) itself [2]: ~60 times
4 | CCN(CC)CCOC(=O)c1ccccc1Nc1cccc(C)c1C [diethylaminoethyl 2-[(2,3-dimethylphenyl)amino]benzoate.AcOH] | > 400 | 15.6 | 55 | 37.35±0.06 | 36.71±0.05 | 36.60±0.08 | 36.59±0.07 | shown analgesic activity nicely | 2.1 | ~200 | 900 | ~2 | ~50 | approximately 200 times | none | – | – | – | – | –
5 | CCN(CC)CCOC(=O)c1ccccc1Nc1c(Cl)ccc(C)c1Cl [diethylaminoethyl 2-[(2,6-dichloro-3-methylphenyl)amino]benzoate.AcOH] | > 400 | 14.2 | 59 | 37.28±0.06 | 36.68±0.05 | 36.62±0.08 | 36.58±0.07 | shown analgesic activity nicely | 2.0 | ~200 | 1000 | ~2 | ~50 | approximately 200 times | none | – | – | – | – | –
6 | CCN(CC)CCOC(=O)c1cccnc1Nc1cccc(C(F)(F)F)c1C [diethylaminoethyl 2-[[2-methyl-3-(trifluoromethyl)phenyl]amino]-3-pyridinecarboxylate.AcOH] | > 450 | 15.7 | 55 | 37.23±0.06 | 36.69±0.06 | 36.52±0.08 | 36.40±0.07 | shown analgesic activity nicely | 1.7 | ~200 | 1100 | ~2 | ~50 | approximately 200 times | none | – | – | – | – | solubility in water [1]: 400 mg/mL (≈ 1010 mM)
7 | CCN(CC)CCOC(=O)c1cccnc1Nc1cccc(C(F)(F)F)c1 [diethylaminoethyl 2-[[3-(trifluoromethyl)phenyl]amino]-3-pyridinecarboxylate.AcOH] | > 450 | 15.2 | 57 | 37.25±0.07 | 36.82±0.06 | 36.70±0.05 | 36.50±0.08 | shown analgesic activity nicely | 1.8 | ~200 | 750 | ~2 | ~50 | approximately 200 times | none | – | – | – | – | solubility in water [1]: 400 mg/mL (≈ 1050 mM)
8 | CCN(CC)CCOC(=O)c1ccccc1Nc1cccc(C(F)(F)F)c1 [diethylaminoethyl 2-[[(3-(trifluoromethyl)phenyl)amino]benzoate.AcOH] | > 400 | 16.1 | 54 | 37.27±0.06 | 36.76±0.05 | 36.65±0.08 | 36.49±0.07 | shown analgesic activity nicely | 2.2 | ~200 | 800 | ~2 | ~50 | approximately 200 times | none | – | – | – | – | –
9 | O=C(O)c1ccccc1Nc1cccc(C(F)(F)F)c1 [flufenamic acid, 2-[[(3-trifluoromethyl)phenyl]amino]benzoic acid] | – | – | – | – | – | – | – | – | – | – | – | – | – | – | – | 2-4 mg of fecal blood per gram of feces | ~0.01 | 2 to 4 | < 0.1 | LD50 [11, 15]: 715 mg/kg
10 | Cc1c(Nc2ncccc2C(=O)O)cccc1C(F)(F)F [flunixin, 2-[[2-methyl-3-(trifluoromethyl)phenyl]amino]-3-pyridinecarboxylic acid] | – | – | – | – | – | – | – | – | – | – | – | – | – | – | – | 2-4 mg of fecal blood per gram of feces | ~0.01 | 2 to 4 | < 0.1 | –
11 | Cc1ccc(Cl)c(Nc2ccccc2C(=O)O)c1Cl [meclofenamic acid, 2-[(2,6-dichloro-3-methylphenyl)amino]benzoic acid] | – | – | – | – | – | – | – | – | – | – | – | – | – | – | – | 2-4 mg of fecal blood per gram of feces | ~0.01 | 2 to 4 | < 0.1 | –
12 | Cc1cccc(Nc2ccccc2C(=O)O)c1C [mefenamic acid, 2-[(2,3-Dimethylphenyl)amino]benzoic acid] | – | – | – | – | – | – | – | – | – | – | – | – | – | – | – | 2-4 mg of fecal blood per gram of feces | ~0.01 | 2 to 4 | < 0.1 | LD50 ([11]; mouse, in vivo): 600 mg/kg
13 | O=C(O)c1cccnc1Nc1cccc(C(F)(F)F)c1 [niflumic acid, 2-[[3-(trifluoromethyl)phenyl]amino]-3-pyridinecarboxylic acid] | – | – | – | – | – | – | – | – | – | – | – | – | – | – | – | 2-4 mg of fecal blood per gram of feces | ~0.01 | 2 to 4 | < 0.1 | LD50 [11, 15]: 650 mg/kg
